Assay results taken from patent US8796244B2, “Imidazopyridine derivatives as inhibitors of receptor tyrosine kinases” (Astex Therapeutics Ltd, priority 2008, dated 2014).
Where a name gives a salt, the structure may show the parent alone.

tested on: parental wild-type Ba/F3 cells; experiment: Ba/F3 (WT) cell proliferation assay (Alamar Blue); format: cell-based; details: Mus musculus, BaF3, 72 h, read-out: BaF3 WT prolif (μM)

SMILES | IC50 [µM]
Nc1cccnc1-c1ccn2c(-c3cccc(NC(=O)NCC(F)(F)F)c3)cnc2c1 [Example 125, 1-{3-[7-(3-Amino-pyridin-2-yl)-imidazo[1,2-a]pyridin-3-yl]-phenyl}-3-(2,2,2-trifluoro-ethyl)-urea hydrochloride] | 2.1
Cc1cccnc1-c1ccn2c(-c3cccc(NC(=O)NCC(F)(F)F)c3)cnc2c1 [Example 104, 1-{3-[7-(3-Methyl-pyridin-2-yl)-imidazo[1,2-a]pyridin-3-yl]-phenyl}-3-(2,2,2-trifluoro-ethyl)-urea formate] | 0.4
CN(C)c1ccnc(-c2ccn3c(-c4cccc(NC(=O)NCC(F)(F)F)c4)cnc3c2)n1 [Example 120, 1-{3-[7-(4-Dimethylamino-pyrimidin-2-yl)-imidazo[1,2-a]pyridin-3-yl]-phenyl}-3-(2,2,2-trifluoro-ethyl)-urea hydrochloride] | 1.1
O=C(NCC(F)(F)F)Nc1cncc(-c2cnc3cc(-c4cnn(C5CNC5)c4)ccn23)c1 [Example 123, 1-{5-[7-(1-Azetidin-3-yl-1H-pyrazol-4-yl)-imidazo[1,2-a]pyridin-3-yl]-pyridin-3-yl}-3-(2,2,2-trifluoro-ethyl)-urea formate] | 8.9

same assay, conditions: Mus musculus, BaF3, read-out: BaF3 WT prolif, % inhibition

SMILES | inhibition at 1 µM [%] | inhibition at 3 µM [%] | inhibition at 10 µM [%]
COC(=O)c1cnc(-c2ccn3c(-c4cccc(NC(=O)NCC(F)(F)F)c4)cnc3c2)nc1 [Compound 290] | 16 |  | 
O=C(NCC(F)(F)F)Nc1cccc(-c2cnc3cc(-c4cnn(C5CN(CCO)C5)c4)ccn23)c1 [Example 217] |  | 37 | 
N#Cc1cc(NC(=O)NCC(F)(F)F)cc(-c2cnc3cc(-c4ccnc(C(F)(F)F)n4)ccn23)c1 [Compound 299] | 17 |  | 
Nc1nc(-c2ccn3c(-c4cc(Cl)cc(NC(=O)NCC(F)(F)F)c4)cnc3c2)ncc1F [Compound 300] |  |  | 0
O=C(NCC(F)(F)F)Nc1cc(Br)cc(-c2cnc3cc(-c4ccnc(C(F)(F)F)n4)ccn23)c1 [Compound 294] |  | 22 | 
COCc1cc(N)nc(-c2ccn3c(-c4cccc(NC(=O)NCC(F)(F)F)c4)cnc3c2)n1 [Compound 324] |  |  | 9.4
Nc1nc(-c2ccn3c(-c4cccc(NC(=O)NCC(F)(F)F)c4)cnc3c2)ncc1OCCO [Compound 316] |  |  | 0
Cn1ccnc1C#Cc1ccn2c(-c3cccc(NC(=O)NCC(F)(F)F)c3)cnc2c1 [Compound 282] |  |  | 23
O=C(NCC(F)(F)F)Nc1cccc(-c2cnc3cc(-c4nccc(N5CCNCC5)n4)ccn23)c1 [Compound 269] |  | 0 | 
NC(=O)Nc1cccc(-c2cnc3cc(Cl)ccn23)c1 [Example 119, [3-(7-Chloro-imidazo[1,2-a]pyridin-3-yl)-phenyl]-urea] |  | 23 | 
CC(C)c1cc(N)nc(-c2ccn3c(-c4cccc(NC(=O)NCC(F)(F)F)c4)cnc3c2)n1 [Compound 323] | 0 |  | 
O=C(NCC(F)(F)F)Nc1cccc(-c2cnc3cc(-c4ccc(OC5CCNCC5)nn4)ccn23)c1 [Example 130, 1-(3-{7-[6-(Piperidin-4-yloxy)-pyridazin-3-yl]-imidazo[1,2-a]pyridin-3-yl}-phenyl)-3-(2,2,2-trifluoro-ethyl)-urea] |  |  | 26
O=C(NCC(F)(F)F)Nc1cccc(-c2cnc3cc(-c4nccc(N5CC(O)C5)n4)ccn23)c1 [Example 203] |  |  | 30
O=C(NCC(F)(F)F)Nc1cccc(-c2cnc3cc(-c4ncc(C(=O)O)cn4)ccn23)c1 [Compound 333] | 0 |  | 
O=C(NCC(F)(F)F)Nc1cccc(-c2cnc3cc(-c4cc(=O)[nH]cn4)ccn23)c1 [Example 184] |  |  | 22
COc1cncnc1-c1ccn2c(-c3cccc(NC(=O)NCC(F)(F)F)c3)cnc2c1 [Example 140, 1-{3-[7-(5-Methoxy-pyrimidin-4-yl)-imidazo[1,2-a]pyridin-3-yl]-phenyl}-3-(2,2 ,2-trifluoro-ethyl)-urea] |  |  | 7.1
O=C(NCC(F)(F)F)Nc1cccc(-c2cnc3cc(-c4ncc(C(F)(F)F)cn4)ccn23)c1 [Example 244] |  | 17 | 
COCc1cc(-c2ccn3c(-c4cccc(NC(=O)NCC(F)(F)F)c4)cnc3c2)nc(N)n1 [Compound 335] |  |  | 20
CC(F)(F)c1cnc(-c2ccn3c(-c4cccc(NC(=O)NCC(F)(F)F)c4)cnc3c2)nc1 [Compound 293] |  | 36 | 
Cn1cncc1/C=C/c1ccn2c(-c3cccc(NC(=O)NCC(F)(F)F)c3)cnc2c1 [Example 155, 1-(3-{7-[(E)-2-(3-Methyl-3H-imidazol-4-yl)-vinyl]-imidazo[1,2-a]pyridin-3-yl}-phenyl)-3-(2,2,2-trifluoro-ethyl)-urea] |  | 28 | 
Cc1cc2ncc(-c3cccc(NC(=O)NCC(F)(F)F)c3)n2cc1C [Example 77, 1-[3-(6,7-Dimethyl-imidazo[1,2-a]pyridin-3-yl)-phenyl]-3-(2,2,2-trifluoro-ethyl)-urea formate] |  |  | 53
Cc1cc(N)nc(-c2ccn3c(-c4cccc(NC(=O)NCC(F)(F)F)c4)cnc3c2)n1 [Example 171] | 16 |  | 
Cc1cn2nc(-c3ccn4c(-c5cc(NC(=O)NCC(F)(F)F)cc(OC(C)C)c5)cnc4c3)sc2n1 [Example 247] | 36 |  | 
Cc1nc(-c2ccn3c(-c4cccc(NC(=O)NCC(F)(F)F)c4)cnc3c2)cc(N2CCN(CCO)CC2)n1 [Example 194] |  | 26 | 
O=C(NCC(F)(F)F)Nc1cc(O)cc(-c2cnc3cc(-c4ccnc(C(F)(F)F)n4)ccn23)c1 [Compound 303] |  |  | 0
Nc1nc(-c2ccn3c(-c4cccc(NC(=O)NCC(F)(F)F)c4)cnc3c2)ncc1C(=O)O [Compound 277] |  |  | 0
Nc1nc(-c2ccn3c(-c4cc(F)cc(NC(=O)NCC(F)(F)F)c4)cnc3c2)ncc1F [Compound 305] |  |  | 6
O=C(NCC(F)(F)F)Nc1cccc(-c2cnc3cc(-c4cnc(O)cn4)ccn23)c1 [Example 105, 1-{3-[7-(5-Hydroxy-pyrazin-2-yl)-imidazo[1,2-a]pyridin-3-yl]-phenyl}-3-(2,2,2-trifluoro-ethyl)-urea hydrochloride] |  |  | 16
Cc1cn2nc(-c3ccn4c(-c5cccc(NC(=O)NCC(F)(F)F)c5)cnc4c3)sc2n1 [Example 225] |  |  | 0
Nc1nc(-c2ccn3c(-c4cccc(NC(=O)NCC(F)(F)F)c4)cnc3c2)ncc1CO [Compound 332] |  |  | 0

same assay, conditions: Mus musculus, BaF3; 72 hours, Alamar Blue; read-out: BaF3 WT prolif

SMILES | IC50 [µM]
CC(C)c1cnc(N)nc1-c1ccn2c(-c3cccc(NC(=O)NCC(F)(F)F)c3)cnc2c1 [Example 242] | 1.7
COc1cc(NC(=O)NCC(F)(F)F)cc(-c2cnc3cc(-c4ccnc(C(F)(F)F)n4)ccn23)c1 [Compound 298] | 3
NC1CN(c2ccnc(-c3ccn4c(-c5cccc(NC(=O)NCC(F)(F)F)c5)cnc4c3)n2)C1 [Example 197] | 2.6
Cc1cc(-c2ccn3c(-c4cccc(NC(=O)NCC(F)(F)F)c4)cnc3c2)nc(C(F)(F)F)n1 [Example 237] | 0.12
COc1ncccc1-c1ccn2c(-c3cccc(NC(=O)NCC(F)(F)F)c3)cnc2c1 [Example 150, 1-{3-[7-(2-Methoxy-pyridin-3-yl)-imidazo[1,2-a]pyridin-3-yl]-phenyl}-3-(2,2,2-trifluoro-ethyl)-urea] | 1.7
CC(C)(O)c1cccc(-c2ccn3c(-c4cccc(NC(=O)NCC(F)(F)F)c4)cnc3c2)c1 [Compound 320] | 0.71
Cn1ccnc1C#Cc1ccn2c(-c3cccc(NC(=O)NCC(F)(F)F)c3)cnc2c1 [Compound 282] | 2.8
CC(C)n1ccnc1C#Cc1ccn2c(-c3cccc(NC(=O)NCC(F)(F)F)c3)cnc2c1 [Compound 266] | 1.4
COc1ccc(-c2ccn3c(-c4cccc(NC(=O)NCC(F)(F)F)c4)cnc3c2)nc1 [Example 204] | 0.82
CSc1nc(N)cc(-c2ccn3c(-c4cccc(NC(=O)NCC(F)(F)F)c4)cnc3c2)n1 [Example 205] | 9.8
O=C(NCC(F)(F)F)Nc1cccc(-c2cnc3cc(-c4nccc(N5CCC(O)CC5)n4)ccn23)c1 [Example 109, 1-(3-{7-[4-(4-Hydroxy-piperidin-1-yl)-pyrimidin-2-yl]-imidazo[1,2-a]pyridin-3-yl}-phenyl)-3-(2,2,2-trifluoro-ethyl)-urea] | 32
O=C(NCC(F)(F)F)Nc1cccc(-c2cnc3cc(-c4ccc(CCO)cn4)ccn23)c1 [Example 122, 1-(3-{7-[5-(2-Hydroxy-ethyl)-pyridin-2-yl]-imidazo[1,2-a]pyridin-3-yl}-phenyl)-3-(2,2,2-trifluoro-ethyl)-urea] | 2.4
Cc1cc(Cl)nnc1-c1ccn2c(-c3cccc(NC(=O)NCC(F)(F)F)c3)cnc2c1 [Example 136, 1-{3-[7-(6-Chloro-4-methyl-pyridazin-3-yl)-imidazol[1,2-a]pyridin-3-yl]-phenyl}-3-(2,2,2-trifluoro-ethyl)-urea] | 0.44
Cc1cc(-c2ccn3c(-c4cccc(NC(=O)NCC(F)(F)F)c4)cnc3c2)nnc1Cl [Example 135, 1-{3-[7-(6-Chloro-5-methyl-pyridazin-3-yl)-imidazo[1,2-a]pyridin-3-yl]-phenyl}-3-(2,2,2-trifluoro-ethyl)-urea] | 0.51
COCc1cc(-c2ccn3c(-c4cccc(NC(=O)NCC(F)(F)F)c4)cnc3c2)nc(N)n1 [Compound 335] | 0.74
O=C(NCC(F)(F)F)Nc1cccc(-c2cnc3cc(/C=C/CO)ccn23)c1 [Example 206] | 2.9
CNC(=O)c1cc(C)nc(-c2ccn3c(-c4cccc(NC(=O)NCC(F)(F)F)c4)cnc3c2)n1 [Example 222] | 2.3
Nc1cc(C(F)(F)F)nc(-c2ccn3c(-c4cccc(NC(=O)NCC(F)(F)F)c4)cnc3c2)n1 [Compound 322] | 1.2
Cc1nc2cc(-c3ccn4c(-c5cccc(NC(=O)NCC(F)(F)F)c5)cnc4c3)ccc2s1 [Example 219] | 3.5
O=C(NCC(F)(F)F)Nc1cccc(-c2cnc3cc(-c4cc(C(F)(F)F)ncn4)ccn23)c1 [Example 227] | 3.6
CCNC(=O)Nc1cccc(-c2cnc3cc(-c4ccc(F)c(C)n4)ccn23)c1 [Example 228] | 5.1
Nc1nccnc1-c1ccn2c(-c3cccc(NC(=O)NCC(F)(F)F)c3)cnc2c1 [Example 84, 1-{3-[7-(3-Amino-pyrazin-2-yl)-imidazo[1,2-a]pyridin-3-yl]-phenyl}-3-(2,2,2-trifluoro-ethyl)-urea] | 1.4
